Assay results reported in US20030153552A1, “Method of treating chemical dependency in mammals and a composition therefor” (priority 2002, published 2003).

Test: plasma concentration of ibogaine and its metabolite 12-hydroxy ibogamine over time after ibogaine administration to a human patient
Format: in vivo
Method: An amount of ibogaine was administered to a human patient, and the plasma concentration of both ibogaine and a metabolite thereof, 12-hydroxy ibogamine, were observed as a function of time.
FIG. 1 illustrates the result of administering a certain dosage of ibogaine to a human patient, where the plasma concentration of ibogaine is measured over time. In essence, a peak plasma concentration of about 1,100 ng/ml is observed at administration. It is also notable that at about 11 hours after ibogaine administration, plasma concentration of ibogaine diminished to less than 400 ng/ml. After about 24 hours, plasma concentration diminished to less than 200 ng/ml. Thus, ibogaine is rather quickly eliminated by the patient.
By contrast, FIG. 2 illustrates the variation of noribogaine plasma concentration with time as a metabolite from the same ibogaine administration described above. In essence, a peak plasma concentration of noribogaine of about 590 ng/ml was reached only after about 11 hours from administration. Thereafter, even at 24 hours, a plasma concentration of greater than 500 ng/ml was observed.

SMILES | plasma half-life compared with ibogaine (after ibogaine administration) | plasma concentration of noribogaine (at 24 hours, noribogaine as metabolite from ibogaine administration (FIG. 2)) | time to peak plasma concentration of noribogaine (from ibogaine administration, noribogaine as metabolite (FIG. 2)) | peak plasma concentration of noribogaine (noribogaine as metabolite from ibogaine administration (FIG. 2)) | peak plasma concentration of ibogaine (after ibogaine administration, (FIG. 1)) | concentration at 24 h (plasma, after about 24 hours (FIG. 1)) | concentration at 11 h (plasma, at about 11 hours after ibogaine administration (FIG. 1))
CC[C@H]1C[C@H]2C[C@H]3c4[nH]c5ccc(O)cc5c4CCN(C2)[C@@H]13 [noribogaine, 12-hydroxy ibogamine] | much longer plasma half-life than ibogaine | greater than 500 ng/ml | about 11 hours | about 590 ng/ml | – | – | –
CC[C@H]1C[C@H]2C[C@H]3c4[nH]c5ccc(OC)cc5c4CCN(C2)C13 [ibogaine, reference compound] | – | – | – | – | about 1,100 ng/ml | < 200 ng/mL | < 400 ng/mL
